The text below walks through data of paper PMC9607599, “Dual Targeting Ligands—Histamine H3 Receptor Ligands with Monoamine Oxidase B Inhibitory Activity—In Vitro and In Vivo Evaluation” (Pharmaceutics, 2022).

Molecules are shown by their SMILES. “And” between values parts separate entries of the source, which are not always exact repeats. Equal values may be shown once. Where a name gives a salt, the structure may show the parent alone. Read-outs that look alike come from different tables or passages of the source.

The target of data set [1] is T1, human MAO B (hMAO B) (Homo sapiens, UniProt P27338).
T1 sequence (P27338 1-520): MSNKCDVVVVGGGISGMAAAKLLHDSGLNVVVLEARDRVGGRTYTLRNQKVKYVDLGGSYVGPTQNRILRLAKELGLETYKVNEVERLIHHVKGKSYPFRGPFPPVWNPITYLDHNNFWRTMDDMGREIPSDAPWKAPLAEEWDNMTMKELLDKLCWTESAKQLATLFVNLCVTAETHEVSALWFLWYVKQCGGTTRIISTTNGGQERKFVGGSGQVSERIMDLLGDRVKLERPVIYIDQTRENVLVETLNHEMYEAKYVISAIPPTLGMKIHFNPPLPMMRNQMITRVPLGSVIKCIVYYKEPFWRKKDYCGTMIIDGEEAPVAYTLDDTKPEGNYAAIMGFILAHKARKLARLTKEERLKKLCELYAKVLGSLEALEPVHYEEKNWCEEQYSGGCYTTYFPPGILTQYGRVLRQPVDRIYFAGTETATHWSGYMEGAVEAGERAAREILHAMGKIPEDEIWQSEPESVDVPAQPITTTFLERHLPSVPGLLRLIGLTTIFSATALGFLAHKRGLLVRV
As to the kind of experiment: fluorometric MAO assay (p-tyramine substrate). In kind it is biochemical. To be noted: for IC50: fluorometric MAO assay, mean ± SEM of 2–4 independent experiments; for inhibition at 1 µM: mean of two independent experiments, read-out: hMAO B % of Inh. The method, then: The precise method was described in [6]. First, compounds 4–32 were screened for hMAO B inhibitory activity at 1 μM concentration by the fluorometric method. Para-tyramine (200 μM) was used as a substrate for the enzyme and safinamide (1 μM) was used as a reference compound. […] Each experiment was performed in duplicate.
All compounds were first screened for hMAO B inhibitory activity at the concentration of 1 μM. […] Based on the results, we selected compounds 9 and 13 for further analysis.

In data set [2] the target is human histamine H3 receptor (hH3R) (Homo sapiens, UniProt Q9Y5N1). As to the kind of experiment: [3H]Nα-methylhistamine radioligand binding assay in CHO-K1 cells stably expressing hH3R. Also on record: expressed in transfected cells; host or cells: CHO-K1. The settings on record: for inhibition at 1 µM / hH3R activity in words: CHO K1 cells; for inhibition at 1 µM: two independent experiments, read-out: hH3R % Inh. (radioligand inhibition); for Ki: CHO-K1 cells, [3H]Nα-methylhistamine, mean ± SEM of three independent experiments. How it is done: Affinity to hH3R stably expressed in CHO-K1 [6] or HEK293 [11] cells was evaluated in a radioligand binding assay as described previously. Briefly, 10 mM stock solutions of the test compounds in DMSO were prepared. Each compound was tested at eight concentrations ranging from 10^−5 to 10^−12 M (final concentration). All assays were carried out in duplicate. […] The radioactivity was counted in MicroBeta 2 [6] or MicroBeta Trilux counter (PerkinElmer). Data were fitted to a one-site curve-fitting equation with Prism 6 (GraphPad Software, San Diego, CA, USA) and Ki values were calculated from IC50 values (from at least three experiments performed in duplicates) according to the Cheng−Prusoff equation [12].
Affinity for hH3R was evaluated in a radioligand binding assay using [^3H]N^α-methylhistamine as radioligand in CHO K1 or HEK293 cells stably expressing hH3R as described previously. […] Then, those with at least 50% inhibition for hH3R were selected for further testing (Ki evaluation). […] Compounds were tested in the binding assay in HEK293 cells.

Data set [3] has as its target T2, MAO B (Homo sapiens, UniProt P27338).
T2 sequence (P27338 1-520): T1 sequence (P27338 1-520)
Briefly: reversibility of MAO B inhibition (reactivation by excess p-tyramine, with/without preincubation). In kind it is biochemical. The settings on record: inhibitor at IC80. The method, then: The reversibility of the MAO inhibition was tested as described in [6, 7]. […] Two variants of experiment were performed. […] After 22 min, the concentration of the substrate was increased to 200 µM and the signal was measured for 5 h.

human histamine H3 receptor (hH3R), sequence (Q9Y5N1 whole entry): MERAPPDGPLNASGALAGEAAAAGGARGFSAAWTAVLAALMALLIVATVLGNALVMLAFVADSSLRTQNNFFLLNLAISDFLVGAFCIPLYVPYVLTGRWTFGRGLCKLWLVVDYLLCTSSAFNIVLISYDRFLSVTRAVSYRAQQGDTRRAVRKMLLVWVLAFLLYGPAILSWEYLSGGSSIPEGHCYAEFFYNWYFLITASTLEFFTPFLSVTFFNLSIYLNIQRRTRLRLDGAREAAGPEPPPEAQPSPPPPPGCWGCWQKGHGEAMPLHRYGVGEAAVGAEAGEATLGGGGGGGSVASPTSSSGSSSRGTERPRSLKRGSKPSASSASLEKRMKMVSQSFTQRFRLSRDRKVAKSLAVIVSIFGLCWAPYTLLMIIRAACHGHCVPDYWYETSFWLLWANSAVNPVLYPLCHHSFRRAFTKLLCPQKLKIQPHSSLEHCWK

For `CCN(CC)CCCOc1ccc(C(C)(C)C)cc1.O=C(O)C(=O)O` (hydrate or solvate) [Compound 7, 3-(4-(tert-Butyl)phenoxy)-N,N-diethylpropan-1-amine hydrogen oxalate], the melting point was in the range of 105 to 108 °C.
On the same count and under the same terms, to `CC1CCCC(C)N1CCCOc1ccc(C(C)(C)C)cc1.Cl` (stereo not drawn) (hydrate or solvate) [Compound 11, 1-(3-(4-(tert-Butyl)phenoxy)propyl)-2,6-dimethylpiperidine hydrogen chloride] belongs 194 to 196 °C (dec.).
On the same count and under the same terms, to `CC(C)(C)c1cccc(OCCCN2CCCCC2)c1.Cl` (hydrate or solvate) [Compound 25, 1-(3-(3-(tert-Butyl)phenoxy)propyl)piperidine hydrogen chloride] belongs 145 to 148 °C.
For `CN(C)CCCOc1ccc(C(C)(C)C)cc1` [Compound 4, 3-(4-(tert-Butyl)phenoxy)-N,N-dimethylpropan-1-amine hydrogen oxalate], inhibition in data set [1] was half-maximal at 0.019 ± 0.002 µM (IC50). In addition, the inhibition at 1 µM in data set [2] worked out at 24%.
On to `CCN(C)CCCOc1ccc(C(C)(C)C)cc1` [Compound 5, 3-(4-(tert-Butyl)phenoxy)-N-ethyl-N-methylpropan-1-amine hydrogen oxalate], for which the IC50 in data set [1] came out at 0.009 µM. Also, the inhibitory constant (Ki) in data set [2] (read-out: hH3R Ki [nM] ± SEM) worked out at 484 ± 15 nM.
Compound `CC(C)N(C)CCCOc1ccc(C(C)(C)C)cc1` [Compound 6, 3-(4-(tert-Butyl)phenoxy)-N-isopropyl-N-methylpropan-1-amine hydrogen oxalate] yielded an IC50 in data set [1] of 0.006 ± 0.001 µM. In addition, the Ki in data set [2] (read-out: hH3R Ki [nM] ± SEM) came out at 900 ± 75 nM.
Compound `CCN(CC)CCCOc1ccc(C(C)(C)C)cc1` [Compound 7, 3-(4-(tert-Butyl)phenoxy)-N,N-diethylpropan-1-amine hydrogen oxalate] returned an IC50 in data set [1] of 0.015 ± 0.004 µM. In addition, the inhibition at 1 µM in data set [2] was 32%.
For `CC(C)N(CCCOc1ccc(C(C)(C)C)cc1)C(C)C` [Compound 8, 3-(4-(tert-Butyl)phenoxy)-N,N-diisopropylpropan-1-amine hydrogen chloride] the same measures were 0.037 ± 0.006 µM and 8%.
On to `CC1CCCC(C)N1CCCOc1ccc(C(C)(C)C)cc1` (stereo not drawn) [Compound 11, 1-(3-(4-(tert-Butyl)phenoxy)propyl)-2,6-dimethylpiperidine hydrogen chloride], for which inhibition in data set [1] was half-maximal at 0.009 ± 0.001 µM (IC50). Further, the inhibition constant Ki in data set [2] (read-out: hH3R Ki [nM] ± SEM) was < 100 nM and 97 nM.
`CC(C)(C)c1ccc(OCCCN2CCOCC2)cc1.O=C(O)C(=O)O` [Compound 14, 4-(3-(4-(tert-Butyl)phenoxy)propyl)morpholine hydrogen oxalate]: the melting point fell in the range of 188 to 192 °C. Also, the IC50 in data set [1] is 0.192 ± 0.014 µM. In addition, in data set [2], the “hH3R activity in words” value is reported as “weak potency” and the inhibition at 1 µM amounted to 11%.
As for `CN1CCN(CCCOc2ccc(C(C)(C)C)cc2)CC1.O=C(O)C(=O)O` [Compound 15, 1-(3-(4-(tert-Butyl)phenoxy)propyl)-4-methylpiperazine hydrogen oxalate], in data set [1], inhibition was half-maximal at 0.665 ± 0.118 µM (IC50). Moreover, in data set [2], the “hH3R activity in words” value is reported as “no activity at all” and the inhibition at 1 µM is 0%.
In the case of `CC(C)(C)c1ccc(OCCCN2CCN(c3ccccc3)CC2)cc1.O=C(O)C(=O)O` [Compound 16, 1-(3-(4-(tert-Butyl)phenoxy)propyl)-4-phenylpiperazine hydrogen oxalate], the melting point lay within 164 to 166 °C. Further, in data set [1], the inhibition at 1 µM amounted to 14%. For the same compound, the “hH3R activity in words” value in data set [2] is listed as “weak potency”. The affinity in data set [2] (hH3R Ki [nM] ± SEM) corresponds to a Ki of 535 ± 41 nM.
In turn, `CC(C)(C)c1ccc(OCCCN2CCN(C/C=C\c3ccccc3)CC2)cc1.O=C(O)C(=O)O` [Compound 17, (Z)-1-(3-(4-(tert-Butyl)phenoxy)propyl)-4-(3-phenylallyl)piperazine hydrogen oxalate] had a melting point of 217 to 219 °C. Besides, the inhibition at 1 µM in data set [1] was determined as 7%. For the same compound, in data set [2], the “hH3R activity in words” value is listed as “no activity at all” and the inhibition at 1 µM worked out at 0%.
Turning to `CC(C)(C)c1ccccc1OCCCN1CCCCC1` [Compound 24, 1-(3-(2-(tert-Butyl)phenoxy)propyl)piperidine hydrogen oxalate], the inhibition at 1 µM in data set [1] turned out to be 4%; in data set [2] it was 13%. The inhibition constant (Ki) in data set [2] (read-out: hH3R Ki [nM] ± SEM) was above 1000 nM.
As for `CC(C)(C)c1cccc(OCCCN2CCCCC2)c1` [Compound 25, 1-(3-(3-(tert-Butyl)phenoxy)propyl)piperidine hydrogen chloride], the midpoint of inhibition in data set [1], the IC50, lay at 1.02 ± 0.069 µM. Further, the Ki in data set [2] (read-out: hH3R Ki [nM] ± SEM) worked out at 340 ± 23 nM.
`Cc1cccc(C(C)(C)C)c1OCCCN1CCCCC1.O=C(O)C(=O)O` [Compound 26, 1-(3-(2-(tert-Butyl)-6-methylphenoxy)propyl)piperidine hydrogen oxalate] returned a melting point of 134 to 135 °C. Further, the inhibition at 1 µM in data set [1] is 0%. The Ki in data set [2] (read-out: hH3R Ki [nM] ± SEM) was above 1000 nM. Further, the inhibition at 1 µM in data set [2] amounted to 0%.
Consider `Cc1ccc(C(C)(C)C)c(OCCCN2CCCCC2)c1` [Compound 27, 1-(3-(2-(tert-Butyl)-5-methylphenoxy)propyl)piperidine hydrogen oxalate], for which the inhibition at 1 µM in data set [1] was 4%; in data set [2], 0%. Moreover, the Ki in data set [2] (read-out: hH3R Ki [nM] ± SEM) is above 1000 nM.
Compound `Cc1ccc(OCCCN2CCCCC2)c(C(C)(C)C)c1.O=C(O)C(=O)O` [Compound 28, 1-(3-(2-(tert-Butyl)-4-methylphenoxy)propyl)piperidine hydrogen oxalate] yielded a melting point of 182 to 184 °C. Moreover, the inhibition at 1 µM in data set [1] is 7%. Moreover, the Ki in data set [2] (read-out: hH3R Ki [nM] ± SEM) turned out to be 448 ± 59 nM.
`CC(C)(C)c1ccc(NC(=O)OCCCN2CCCCC2)cc1` [Compound 29, 3-(Piperidin-1-yl)propyl (4-(tert-butyl)phenyl)carbamate hydrogen oxalate] returned an IC50 in data set [1] of 2.33 ± 0.436 µM. For the same compound, the Ki in data set [2] (read-out: hH3R Ki [nM] ± SEM) was above 1000 nM. The inhibition at 1 µM in data set [2] stood at 32%.
`CC(C)(C)NC(=O)OCCCN1CCCCC1` [Compound 30, 3-(Piperidin-1-yl)propyl tert-butylcarbamate hydrogen oxalate]: the inhibition at 1 µM was 47% in data set [1] and 15% in data set [2].
For `CC(C)(C)CC(C)(C)NC(=O)OCCCN1CCCCC1` [Compound 31, 3-(Piperidin-1-yl)propyl (2,4,4-trimethylpentan-2-yl)carbamate hydrogen oxalate], in that order: 41% and 19%.
On to `CC(C)(C)CCNC(=O)OCCCN1CCCCC1` [Compound 32, 3-(Piperidin-1-yl)propyl (3,3-dimethylbutyl)carbamate hydrogen oxalate], for which the 50% inhibitory concentration (IC50) in data set [1] amounted to 0.925 ± 0.029 µM. In addition, in data set [2], the inhibition at 1 µM was 20%.
Consider `CC(C)(C)c1ccc(OCCCN2CCCCC2)cc1` [DL76, 1-(3-(4-tert-butylphenoxy)propyl)piperidine, reference compound], for which the Ki in data set [2] (read-out: hH3R Ki [nM] ± SEM) is 57 nM and 57.5 nM.
Consider `C#CCN[C@@H]1CCc2ccccc21` [rasagiline, reference compound], for which the “effect of 30 min preincubation on inhibition (preincubated vs non-preincubated)” value in data set [3] is “inhibited the enzyme more strongly than non-preincubated”. The “reversibility of MAO B inhibition” value in data set [3] (excess p-tyramine 200 µM) was “Irreversible inhibition”.

The term melting point denotes the temperature of the solid-liquid transition. For orientation: IC50 means the concentration that gives 50% inhibition. For orientation: Ki means a measure of affinity in units of concentration, obtained from inhibition or displacement.
